This data set has as its system auditory hair cells of organ of Corti (OC) explants. Briefly: Protection of auditory hair cells from gentamicin-induced loss in organ of Corti explant culture (hair cell counting, basal turn). It is filed as cell-based, C57bl/6j mice. The settings on record: for hair cells lost / protection from loss of hair cells / loss of hair cells: 24 hours; for protection against gentamicin-induced loss of hair cells (in words): Example 1: 5 μM pioglitazone, 30 μM pamapimod, or both, with gentamicin, 24 hr in culture; for loss of hair cells: p5 mouse OC explants, basal turn. The protocol: All animal procedures were carried out according to protocols approved by the Kantonales Veterinäramt, Basel, Switzerland. Postnatal day 5 (p5) C57bl/6j were used for the studies. Studies were performed in vitro, using organ of Corti (OC) explants from p5 animals. Animals were sacrificed and the cochleae carefully dissected to separate the organ of Corti from the spiral ganglion, stria vascularis and Reissner's membrane [Sobkowicz H M, Loftus J M, Slapnick S M. Acta Otolaryngol Suppl. 1993; 502:3-36].
OCs were harvested and then placed in culture medium [Dulbecco's Modified Eagle Medium supplemented with 10% FCS, 25 mM HEPES and 30 U/ml penicillin (Invitrogen, Carlsbad, 20 CA, USA)] and incubated for 24 hours at 37° C. in an atmosphere of 95% O2/5% CO2. After that period, the culture medium was replaced with fresh medium containing no compound or 50 μM gentamicin alone or 50 μM gentamicin with either 5 μM pioglitazone, 30 μM pamapimod, or 5 μM pioglitazone+30 μM pamapimod, and incubated for a further 24 hours at 37° C. Ten OC explants were used for each treatment condition.
After incubation with compounds, the OCs were fixed in 4% paraformaldehyde, washed and then stained with a fluorescein (FITC)-conjugated phalloidin to detect inner and outer hair cells. After staining, the OCs were visualized and photographed using a fluorescence microscope (Olympus FSX100). Auditory hair cells were quantified for the basal turn of each organ of Corti in 3 fields corresponding to 80 hair cells each. The average values for the three fields were then averaged for the 10 OCs used for each condition. Significant differences between treatment groups in numbers of hair cells were determined using analysis of variance (ANOVA) followed by the least significant difference (LSD) post-hoc test (Stat View 5.0). Differences associated with P values of less than 0.05 were considered to be statistically significant. All data are presented as mean±SD.
OCs were harvested and then placed in culture medium [Dulbecco's Modified Eagle Medium supplemented with 10% FCS, 25 mM HEPES and 30 U/ml penicillin (Invitrogen, Carlsbad, 20 CA, USA)] and incubated for 24 hours at 37° C. in an atmosphere of 95% O2/5% CO2. After that period, the culture medium was replaced with fresh medium containing no compound or 100 µM gentamicin alone or 100 μM gentamicin with either 1 μM pioglitazone, 1 μM pamapimod, or 1 μM pioglitazone+1 μM pamapimod, and incubated for a further 24 hours at 37° C. The gentamicin concentration of 100 μM was determined as that concentration that leads to 50% loss of hair cells. Batch to batch variation in the activity of gentamicin requires that the concentration used for specific experiments leading to 50% hair cell loss be predefined in pilot experiments for each batch. Ten OC explants were used for each treatment condition.

Data on three compounds can be found in patent US20190209568A1, “METHOD OF PREVENTING OR TREATING HEARING LOSS” (SUPPORT-VENTURE GMBH, priority 2016, published 2019).

Consider `Cn1c(=O)c(Oc2ccc(F)cc2F)cc2cnc(NC(CCO)CCO)nc21` [pamapimod, 6-(2,4-Difluorophenoxy)-2-[3-hydroxy-1-(2-hydroxyethyl)-propylamino]-8-methyl-8H-pyrido[2,3-d]pyrimidin-7-one], for which the “protection against gentamicin-induced loss of hair cells (in words)” value is “partially prevented the loss of hair cells”. Besides, under “Example 1, FIG. 1: 30 μM pamapimod (micronized, Dv50=3 μm) with 50 μM gentamicin”, the hair cells lost result was “approximately 20%”. For the same compound, under “Example 2, FIG. 2: 1 μM pamapimod with 100 μM gentamicin”, the “protection from loss of hair cells” value is given as “approximately 30%”.
In the case of `CCc1ccc(CCOc2ccc(CC3SC(=O)NC3=O)cc2)nc1` (centres unmarked) [pioglitazone], the “protection against gentamicin-induced loss of hair cells (in words)” value was “partially prevented the loss of hair cells”. Further, the hair cells lost result (Example 1, FIG. 1: 5 μM pioglitazone (micronized, Dv50=4 μm) with 50 μM gentamicin) is “approximately 20%”. Besides, the “protection from loss of hair cells” value (Example 2, FIG. 2: 1 μM pioglitazone with 100 μM gentamicin) was “approximately 40%”.
For gentamicin, the “loss of hair cells” value is reported as “approximately 50%” (Example 1, FIG. 1: 50 μM gentamicin alone) and “approximately 50%” (Example 2, FIG. 2: 100 μM gentamicin alone).
